Here are results for five compounds from patent US20160060235A1, “Therapeutic Agent for Type 2 Diabetes” (NATIONAL UNIVERSITY CORPORATION KUMAMOTO UNIVERSITY, priority 2013, published 2016).

Test [1] has as its system E. coli harboring pACYCDuet-1-Phe. Kind of test: Primary screening: dual luciferase assay of translation accuracy (frameshift mistranslation reporter). Format: cell-based. To be noted: versus DMSO control; for relative translation accuracy with the translation accuracy of the control defined as 1: compound at final concentration of 10 μM, shake culture 1 hour; for improvement of translation accuracy as compared with the control (in words): existing therapeutic agents for diabetes, 10 μM. An excerpt: The vector map of the prepared plasmid pACYCDuet-1-Phe (SEQ ID NO: 1) is shown in the left diagram of FIG. 1. The phenylalanine codon TTT was designed as NNN. When translation takes place according to the normal reading frame, the stop codon TAA appears immediately after TTT so that the sequence is not translated into firefly luciferase. On the other hand, if mistranslation occurs in TTT so as to skip one T, the stop codon is circumvented so that the sequence is correctly translated into firefly luciferase. This means that the higher the accuracy of translation is, the lower the fluorescence intensity of firefly luciferase is.
Renilla luciferase gene is also cloned into this plasmid as a control.
The E. coli harboring pACYCDuet-1-Phe was cultured overnight at 37° C. using 100 mL of a culture medium. After confirmation that OD550 reached 0.4 to 1, 1 mL of the culture medium was dispensed, and each low-molecular compound was added thereto at a final concentration of 10 μM. After shake culture for 1 hour, the E. coli was recovered and lysed by suspension in 10 mM Tris-HCl (pH 7.4), 1 mM magnesium chloride, and 0.1 mg/mL lysozyme (manufactured by Wako Pure Chemical Industries, Ltd.).
The activity of the firefly luciferase and the Renilla luciferase was measured using Dual-Luciferase Reporter Assay System (manufactured by Promega Corp.). To 5 μL of the E. coli lysate, 50 μL of an assay solution for the firefly luciferase was added for the measurement. Then, 50 μL of an assay solution for the Renilla luciferase was added thereto for the measurement. An E. coli lysate supplemented only with DMSO was prepared as a control.
The luminescence intensity of the firefly luciferase was corrected against that of the Renilla luciferase by use of the equation given below. This series of experimental approaches is plotted in FIG. 1.
Relative luminescence intensity=Firefly luciferase/Renilla luciferase
Relative translation accuracy=Relative luminescence intensity (from the addition of only DMSO)/Relative luminescence intensity (in the presence of the compound)

The test system of test [2] is islet of Langerhans isolated from a pancreatic β cell-specific Cdkal1-deficient mouse. The experiment in a line: Secondary screening: insulin secretion experiment by glucose stimulation. Format: cell-based. The arrangement: insulin secretion under low-concentration (2.8 mM) and high-concentration (16.7 mM) glucose stimulation / concentration of insulin secreted into the Ringer solution: unit of the concentration uncertain. The source says: The islet of Langerhans was isolated from a pancreatic β cell-specific Cdkal1-deficient mouse (see non-patent document 11) according to the literature (Gotoh M., et al., Transplantation, 1987, 43 (5), p. 725-730). The chest of the mouse was opened under ether anesthesia, and the common bile duct was peeled off. The pancreas swollen by the gradual injection of a collagenase solution (320 U/mL, manufactured by Sigma-Aldrich Corp.) was excised. The pancreas containing collagenase was digested for 30 minutes in a water bath of 37° C. and then dispersed with a pipette. The islet of Langerhans was isolated using a concentration gradient of a Ficoll solution (manufactured by Amersham Pharmacia Biotech Inc.). The islet of Langerhans was incubated for 30 minutes while kept at 37° C. in a Ringer solution (119 mM sodium chloride, 4.74 mM potassium chloride, 1.19 mM monosodium dihydrogen phosphate, 25 mM sodium bicarbonate, 10 mM HEPES, 2.54 mM calcium chloride, 1.19 mM magnesium chloride, and 0.2% BSA) saturated with a mixed gas of 95% O2 and 5% CO2.
Each low-molecular compound found positive in the primary screening was dissolved in DMSO, and this solution was added at a final concentration of 10 mM to a Ringer solution containing glucose to prepare a Ringer solution. A Ringer solution supplemented only with DMSO was prepared as a control.
The isolated mouse islet of Langerhans was first cultured for 30 minutes in a Ringer solution containing a low concentration (2.8 mM) of glucose. Then, the Ringer solution was replaced with a Ringer solution containing the low-molecular compound and the low concentration of glucose. After 30 minutes, the Ringer solution was recovered, and a Ringer solution containing the low-molecular compound and a high concentration (16.7 mM) of glucose was subsequently added thereto. After 30 minutes, the Ringer solution was recovered. The amount of insulin released into the Ringer solution was detected using an insulin detection kit (Libs Insulin-Mouse (S type), manufactured by Shibayagi Co., Ltd) according to the protocol of the kit.

The test system of test [3] is pancreatic β cell-specific Cdkal1-deficient mouse. Kind of test: Glucose tolerance after long-term (14 days) administration. To be noted: 1 mg/kg transabdominally once a day over 14 days, glucose 1 g/kg 36 hours after last dose; versus DMSO administration group. Format: in vivo. As for the experimental part:
Each low-molecular compound found positive in the screening was transabdominally injected once a day over 14 days at a dose of 1 mg/kg to a pancreatic β cell-specific Cdkal1-deficient mouse. A Cdkal1-deficient mouse was prepared as a control by the injection of saline containing DMSO. Finally, glucose was transabdominally injected at a dose of 1 g/kg to all of the mice 36 hours after the administration of the low-molecular compound. Blood was collected (5 μL) from the tail vein every 15 minutes from immediately after the administration of glucose. The blood glucose level in the mouse blood was measured using Accu-Chek AVIVA Nano (manufactured by F. Hoffmann-La Roche, Ltd.). The statistical test was conducted by repeated measure of two-way ANOVA.

The test system is the same in test [4]. The experiment in a line: Tertiary screening: glucose tolerance after single administration. Format: in vivo. To be noted: 1 mg/kg transabdominally, glucose 1 g/kg after 30 minutes, versus saline administration group. As for the experimental part: A pancreatic β cell-specific Cdkal1-deficient mouse and a wild-type mouse were each fasted overnight. Then, eperisone was transabdominally injected at a dose of 1 mg/kg to each mouse. Each control individual was prepared by the transabdominal injection of saline to each of a pancreatic β cell-specific Cdkal1-deficient mouse and a wild-type mouse. After 30 minutes, glucose was transabdominally injected at a dose of 1 g/kg to all of these mice. Blood was collected (5 μL) every 15 minutes from immediately after the administration of glucose. The blood glucose level in the mouse blood was measured using Accu-Chek AVIVA Nano (manufactured by F. Hoffmann-La Roche, Ltd.). The statistical test was conducted by repeated measure of two-way ANOVA.

Turning to `CNCCC(Oc1ccc(C(F)(F)F)cc1)c1ccccc1` (stereo not shown) [fluoxetine], the “relative translation accuracy with the translation accuracy of the control defined as 1” value in test [1] was “approximately 1.5 times”. In addition, the “concentration of insulin secreted into the Ringer solution” value in test [2] (low-concentration (2.8 mM) glucose stimulation, compound at final concentration of 10 (unit uncertain)) is on record as “significantly improve insulin secretion”. Moreover, in test [3], the “blood glucose level after glucose administration” value is on record as “significantly decreased blood glucose level”.

On to `COc1ccc(Cl)cc1C(=O)NCCc1ccc(S(=O)(=O)NC(=O)NC2CCCCC2)cc1` [glibenclamide], for which, in test [1], the “improvement of translation accuracy as compared with the control (in words)” value is “none of the existing therapeutic agents for diabetes were shown to significantly improve translation accuracy”.

Turning to elvitegravir, the “relative translation accuracy with the translation accuracy of the control defined as 1” value in test [1] is given as “approximately 8 times”.

On to `CN(C)C(=N)N=C(N)N` [metformin], for which the “improvement of translation accuracy as compared with the control (in words)” value in test [1] is listed as “none of the existing therapeutic agents for diabetes were shown to significantly improve translation accuracy”.

Consider `CCc1ccc(C(=O)C(C)CN2CCCCC2)cc1` (stereo not shown) [eperisone], for which the “insulin secretion under low-concentration (2.8 mM) and high-concentration (16.7 mM) glucose stimulation” value in test [2] (compound at final concentration of 10 (unit uncertain) in Ringer solution, 30 minutes each) is “accelerate insulin secretion only under the high-concentration glucose stimulation”. In addition, the “relative amount of insulin secreted compared with glibenclamide” value in test [2] (high-concentration (16.7 mM) glucose stimulation, glibenclamide defined as 1) is “accelerate insulin secretion more highly than glibenclamide”. For the same compound, the “blood glucose level after glucose administration” value in test [4] and in test [3] was “significantly decreased blood glucose level” each time.
